Tests used:
[1] = system: patients with schizophrenia; test: Randomized withdrawal relapse-prevention study (NCT01291511): efficacy assessments; assay type: in vivo, human; settings: for Avg Time to Relapse or Impending Relapse: full analysis population; for Hazard Ratio (95% CI): favoring iloperidone over placebo
Method: Study subjects were adults with schizophrenia who were first treated with open-label iloperidone 12 mg/day given as 6 mg BID and then stabilized for a further 14-24 weeks with a flexible-dose iloperidone regimen as per investigator judgment ranging between 8-24 mg/day daily dose (given BID). Subjects who remained clinically stable for at least 12 weeks entered the relapse prevention phase and were randomized 1:1 to either continue on the same flexible dose regimen of iloperidone or to withdraw from iloperidone to matched placebo in a double-blinded fashion. Subjects were followed for up to 26 weeks and were withdrawn upon showing signs of relapse or impending relapse. A pre-defined unblinded interim analysis (IA) was conducted utilizing a group sequential testing procedure with an O'Brien-Fleming stopping boundary after 68 relapse or impending relapse events were observed. The primary outcome was time-to-relapse or impending relapse with event criteria defined in the protocol prior to first subject enrollment.
A randomized, double-blind, placebo-controlled, parallel-group study (ClinicalTrials.gov identifier NCT01291511) was performed at 27 centers in the United States, 15 in India and 24 in Ukraine.
The study consisted of five phases, the first four of which are shown in FIG. 1: screening phase, open-label titration phase, open-label stabilization phase, double-blind randomized withdrawal phase, and open-label extension phase (not shown).
In the Open-Label Titration Phase, patients received iloperidone 1, 2, 4, 6, 6, 6, 6 mg twice daily on Days 1 through 7, respectively. All previous antipsychotic treatments were discontinued prior to, or within 4 days, after the first day of iloperidone treatment. If the Investigator felt that it was necessary to titrate down the previous antipsychotic medication, the dose reduction was to be done within the first 4 days initiating iloperidone treatment (i.e., previous medication fully discontinued by Day 4).
In the Open-Label Stabilization Phase, patients received flexible doses of iloperidone 4 to 12 mg twice daily (8 to 24 mg/day). Patients needed to be clinically stable for a minimum of 12 weeks prior to randomization.
In the Double-Blind Randomized Withdrawal Phase, patients were randomized to receive iloperidone or placebo. Patients randomized to iloperidone initially took the dose level being received during the last 4 weeks of the Stabilization Phase and then treated with flexible doses of iloperidone 4 to 12 mg twice daily (8 to 24 mg/day).
Patients needed to be clinically stable throughout the last 12 weeks of the Stabilization Phase to be eligible for randomization. “Clinically stable” adult outpatients were defined as: meeting DSM-IV criteria for schizophrenia, and remaining stable following 12 weeks of open-label treatment with flexible doses of iloperidone, being on an established dose of iloperidone that remained unchanged due to efficacy during the 4 weeks prior to randomization; PANSS total score ≤70 and CGI-S score ≤4; Score of ≤4 on each of the following individual PANSS items: P1 (delusion), P2 (conceptual disorganization), P3 (hallucinatory behavior), P6 (suspiciousness/persecution), P7 (hostility), or G8 (uncooperativeness); and no hospitalization or increase in level of care to treat exacerbations.
The primary efficacy endpoint was time to relapse or impending relapse. Relapse or impending relapse during the double-blind relapse prevention phase was defined as any of the following: hospitalization (voluntary or involuntary) due to worsening of schizophrenia; an increase (worsening) of the PANSS total score of ≥30% from randomization, confirmed at a second visit conducted with 1 to 7 days later; patient had clinically significant suicidal, homicidal, or aggressive behavior; CGI-I score of ≥6 (much worse) or 7 (very much worse) after randomization; or an increase in iloperidone dose or in need of additional antipsychotic treatment. […]

[2] = system: patients with schizophrenia; test: Randomized withdrawal relapse-prevention study (NCT01291511): safety assessments; assay type: in vivo, human; settings: for Patients with at least 1 TEAE: Full Analysis Population; for Primary Reason for Discontinuation: Abnormal Laboratory Value(s) / Primary Reason for Discontinuation: Abnormal Test Procedure Result(s) / Primary Reason for Discontinuation: Adverse Event(s) / Primary Reason for Discontinuation: Death: interim analysis population, % of discontinued
Text: Safety assessments included collection of adverse events (AEs), clinical laboratory evaluations, 12-lead electrocardiograms (ECGs), body weight, vital signs, Columbia Suicide Severity Rating Scale (C-SSRS), and movement disorder rating scales (Barnes Akathisia Scale [BAS], Abnormal Involuntary Movement Scale [AIMS], and Simpson Angus Scale [SAS]).
The safety population was defined for each study phase (Titration and Stabilization or Double-Blind Relapse Prevention). For each phase, the safety population included all patients who received at least 1 dose of study medication during the corresponding phase. Descriptive statistics by study phase for each of the safety assessments were calculated.

[3] = Double-Blind Relapse Prevention Phase, N = 151
[4] = Relapse Prevention Phase, end of the study
[5] = Titration and Stabilization Phase
[6] = Titration/Stabilization Phase, N = 629
[7] = end of Titration and Stabilization Phase

COc1cc(C(C)=O)ccc1OCCCN1CCC(c2noc3cc(F)ccc23)CC1 [iloperidone]
Avg Time to Relapse or Impending Relapse ([1]; 8 mg/d, n=18): <30 days
Avg Time to Relapse or Impending Relapse ([1]; 12 mg/d, n=58): >120 days
Avg Time to Relapse or Impending Relapse ([1]; 20 mg/d, n=14): >120 days
Average Time to Relapse ([1]; Final (FAS)): 140 days
Relapse Rate ([1]; Final (FAS) (N = 151)): 17.9%
Hazard Ratio (95% CI) ([1]; Final (FAS)): 5.2
Hazard Ratio (95% CI) ([1]; Final (FAS), listed as Iloperidone): 5.2 (3.2, 8.4)
Relapse Rate ([1]; Interim Analysis Population (N = 97)): 20.4%
Hazard Ratio (95% CI) ([1]; Interim Analysis Population, Cox regression): 4.7
Hazard Ratio (95% CI) ([1]; Interim Analysis Population, Cox regression, listed as Iloperidone): 4.7 (2.7, 8.3)
Average Time to Relapse ([1]; Interim Analysis Population, KM estimates): 139 days
CGI-I outcome in the majority of patients ([1]; Relapse Prevention Phase): showed improvement
adjusted mean CGI-I score ([1]; Relapse Prevention Phase, LOCF): 3.3
adjusted mean change from randomization baseline at endpoint in PANSS total score ([1]; Relapse Prevention Phase, LOCF): 2.3 points
mean improvement on the PANSS total score ([1]; during Titration and Stabilization Phase, patients randomized in the IA (N=195)): −19.5±10.1 points
time to relapse compared with placebo (FIG. 2) ([1]; interim analysis population, Kaplan-Meier): statistically significant longer time to relapse
estimated relapse rate at the end of the double-blind relapse prevention phase (KM est.) ([1]; interim analysis, flexible dose 8-24 mg/day): 20.4%
TEAE incidence: Dizziness [2, 3]: 4 (2.6) n (%)
TEAE incidence: Dry Mouth [2, 3]: 0 n (%)
TEAE incidence: Headache [2, 3]: 3 (2.0) n (%)
TEAE incidence: Insomnia [2, 3]: 3 (2.0) n (%)
TEAE incidence: Nausea [2, 3]: 2 (1.3) n (%)
TEAE incidence: Schizophrenia [2, 3]: 3 (2.0) n (%)
TEAE incidence: Somnolence [2, 3]: 2 (1.3) n (%)
TEAE incidence: Weight increased [2, 3]: 2 (1.3) n (%)
Patients with at least 1 TEAE [2, 3]: 60 (39.7) n (%)
changes in AIMS scores ([2]; Relapse Prevention Phase): No clinically meaningful changes
mean change from baseline in QTcF ([2]; Relapse Prevention Phase): 4.9 ms
most common SAE: schizophrenia ([2]; Relapse Prevention Phase): 1.3%
patients discontinued due to TEAEs ([2]; Relapse Prevention Phase): 6%
patients reporting akathisia as TEAE ([2]; Relapse Prevention Phase): 1%
patients reporting extrapyramidal disorder as TEAE ([2]; Relapse Prevention Phase): 1%
patients who experienced a SAE ([2]; Relapse Prevention Phase): 4%
patients who experienced a TEAE ([2]; Relapse Prevention Phase): 40%
patients in whom akathisia was absent (BAS) ([2]; Relapse Prevention Phase, at completion): 95%
mean change from baseline in weight [2, 4]: 0.02 kg
patients with ≥7% increase in weight from baseline [2, 4]: 38%
waist circumference versus placebo [2, 4]: no notable differences
Primary Reason for Discontinuation: Abnormal Laboratory Value(s) ([2]; Relapse Prevention Phase): 3 (13) n (%)
Primary Reason for Discontinuation: Abnormal Test Procedure Result(s) ([2]; Relapse Prevention Phase): 1 (4) n (%)
Primary Reason for Discontinuation: Adverse Event(s) ([2]; Relapse Prevention Phase): 3 (13) n (%)
Primary Reason for Discontinuation: Death ([2]; Relapse Prevention Phase): 1 (4) n (%)
changes in Abnormal Involuntary Movement Scale (AIMS) scores [2, 5]: No clinically meaningful changes
discontinuation due to TEAE: QT prolongation [2, 5]: 1.1%
discontinuation due to TEAE: dizziness [2, 5]: 1.4%
discontinuation due to TEAE: schizophrenia [2, 5]: 1.9%
mean change from baseline in QTcF [2, 5]: 6.4 ms
most common SAE: schizophrenia [2, 5]: 1.4%
patients discontinued due to TEAEs [2, 5]: 15%
patients reporting akathisia as TEAE [2, 5]: 4%
patients reporting extrapyramidal disorder as TEAE [2, 5]: 3%
patients who experienced a SAE [2, 5]: 4%
patients who experienced a Treatment-Emergent Adverse Event (TEAE) [2, 5]: 69%
patients who died while receiving iloperidone ([2]; Titration and Stabilization Phase, one patient, alcohol poisoning): 0.2%
TEAE incidence: Dizziness [2, 6]: 73 (11.6) n (%)
TEAE incidence: Dry Mouth [2, 6]: 43 (6.8) n (%)
TEAE incidence: Headache [2, 6]: 40 (6.4) n (%)
TEAE incidence: Insomnia [2, 6]: 35 (5.6) n (%)
TEAE incidence: Nausea [2, 6]: 32 (5.1) n (%)
TEAE incidence: Schizophrenia [2, 6]: 15 (2.4) n (%)
TEAE incidence: Somnolence [2, 6]: 52 (8.3) n (%)
TEAE incidence: Weight increased [2, 6]: 34 (5.4) n (%)
Patients with at least 1 TEAE [2, 6]: 433 (68.8) n (%)
Primary Reason for Discontinuation: Abnormal Laboratory Value(s) ([2]; Titration/Stabilization Phase): 19 (8) n (%)
Primary Reason for Discontinuation: Abnormal Test Procedure Result(s) ([2]; Titration/Stabilization Phase): 5 (2) n (%)
Primary Reason for Discontinuation: Adverse Event(s) ([2]; Titration/Stabilization Phase): 80 (32) n (%)
Primary Reason for Discontinuation: Death ([2]; Titration/Stabilization Phase): 1 (<1) n (%)
mean change from baseline in weight [2, 7]: 0.5 kg
patients in whom akathisia was absent (Barnes Akathisia Scale) [2, 7]: 97%
patients with ≥7% increase in weight from baseline [2, 7]: 17%
QTcF prolongation in relation to dose/exposure ([2]; longer-term trial, higher exposures associated with more QT prolongation): dose-dependent
adverse events during maintenance period ([2]; patients administered 16 mg/day or less): reduction in adverse events
most common adverse events suspected to be related to iloperidone ([2]; stabilization phase): dizziness, somnolence and dry mouth
patients with elevations in LDL ([2]; versus none on placebo): 2.6%
patients with elevations in blood urea nitrogen (BUN) ([2]; versus none on placebo): 4.5%

Reference: patent US10987346B2, “Iloperidone for the treatment of schizophrenia” (Vanda Pharmaceuticals, Inc., priority 2015, dated 2021)
